Reference: publication PMC6813295, “A tumour-selective cascade activatable self-detained system for drug delivery and cancer imaging” (Nature Communications, 2019)
Where a SMILES comes first, the peptide text is derived from it. The star is where a group is joined. X1 = CC1(C)C(=CC=C2CCCC(C=CC3=[N+](CCCCCC(=O)O)c4ccccc4C3(C)C)=C2*)N(CCCCCC(=O)O)c2ccccc21

Tested on: H460 cells
Format: cell-based, human
Conditions: confocal
Experimental: Fig. 3 Recognition and self-assembly of molecule 1 in cells. a Western blots of XIAP expression in H460 and 293T cells. b Confocal images of H460 cells treated with or without energy-dependent inhibitor (oligomycin A, 20 μM) for 1 h, and followed by washing with PBS and treated with the molecule 1 (50 μM) for 1 h. c Statistical analysis of average fluorescence intensities in the cytoplasm of H460 cells from confocal images. Data are presented as the mean ± s.d. (n = 100). ***p < 0.001, p values were performed with one-way ANOVA followed by post hoc Tukey’s test for the indicated comparison. d Confocal images of time-dependent monitoring of H460 and 293T cells treated with the molecule 1 (50 μM) for 1 h followed by washing with PBS and replacing the medium and a further incubation up to 48 h. e Statistical analysis of average fluorescence intensities in the cytoplasm of H460 and 293T cells from confocal images with a timescale range of 1–48 h. Data are presented as the mean ± s.d. […] Finally, incubate up to 6 h and imaging by confocal microscope. g Schematic diagram illustrates the process of NBD fluorescence illumination. h Confocal images of H460 cells treatment with molecule 1-NBD (50 μM) for 1 h. i TEM images of ultrathin section of H460 cells treated with molecule I-1 (50 μM) and without the molecule I-1 for up to 12 h. […]

Structure (SMILES): CC[C@H](C)[C@H](NC(=O)[C@@H]1CCCN1C(=O)[C@@H](NC(=O)[C@H](C)N)C(C)C)C(=O)N[C@@H](C)C(=O)N[C@@H](CCC(N)=O)C(=O)N[C@@H](CCCCN)C(=O)N[C@@H](CC(=O)O)C(=O)N[C@@H](CCC(=O)O)C(=O)N[C@H](C(=O)N[C@@H](CC(=O)O)C(=O)N[C@@H](CCCCN)C(=O)N[C@@H](CC(C)C)C(=O)N[C@H](C(=O)N[C@@H](Cc1ccccc1)C(=O)N[C@@H](Cc1ccccc1)C(=O)N[C@@H](C)C(=O)N[C@@H](CCC(=O)O)C(=O)N[C@@H](CSC1=C(C=CC2=[N+](CCCCCC(=O)O)c3ccccc3C2(C)C)CCCC1=CC=C1N(CCCCCC(=O)O)c2ccccc2C1(C)C)C(=O)NCC(=O)O)C(C)C)C(C)C [molecule 1] (H-AVPIAQKDEVDKLVFFAEC(X1)G-OH)
- uptake pathway into cells (H460, filipin III 5 μg/ml, chlorpromazine 10 μg/ml, amiloride 10 μM, 1 h, 50 μM 2 h, 37 °C): caveolin-mediated endocytic pathway
- internalization into cells, energy dependence (H460, oligomycin A 20 μM 1 h, then 50 μM 1 h, n = 100): energy-dependent
